Values joined by “and” are separate entries in the source; they are usually repeats but may differ in a detail not shown here. Identical values can stand only once. Inconclusive results and toxic doses are left out. How the source made its calls: active means survival T/C of 150% or more; inactive means T/C below 125% in these data.
System: P388 leukemia ip, CD2F1 mice, survival T/C
Experiment: NCI In Vivo Anticancer Drug Screen. Data for tumor model P388 Leukemia (intraperitoneal) in CD2F1 (CDF1) mice
Conditions: endpoint: median survival time, higher = longer survival
Procedure, shortened: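 Mice carrying the transplanted tumor received test compound or vehicle. Survival was recorded in each group, and the value is the treated-group measurement divided by that of the vehicle-treated control group.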

[1] = dose: 50.0 mg/kg/injection, schedule: Q01DX009 (ip), vehicle: Klucel (hydroxypropylcellulose) (HPC)
[2] = dose: 100.0 mg/kg/injection, schedule: Q01DX009 (ip), vehicle: Klucel (hydroxypropylcellulose) (HPC)
[3] = dose: 50.0 mg/kg/injection, schedule: Q01DX005 (ip), vehicle: saline with Tween-80
[4] = dose: 100.0 mg/kg/injection, schedule: Q01DX005 (ip), vehicle: saline with Tween-80
[5] = dose: 200.0 mg/kg/injection, schedule: Q01DX005 (ip), vehicle: saline with Tween-80
[6] = dose: 60.0 mg/kg/injection, schedule: Q01DX005 (ip), vehicle: saline
[7] = dose: 120.0 mg/kg/injection, schedule: Q01DX005 (ip), vehicle: saline
[8] = dose: 50.0 mg/kg/injection, schedule: Q01DX009 (ip), vehicle: saline
[9] = dose: 100.0 mg/kg/injection, schedule: Q01DX009 (ip), vehicle: saline
[10] = dose: 200.0 mg/kg/injection, schedule: Q01DX009 (ip), vehicle: saline
[11] = dose: 25.0 mg/kg/injection, schedule: Q01DX009 (ip), vehicle: saline with Tween-80
[12] = dose: 50.0 mg/kg/injection, schedule: Q01DX009 (ip), vehicle: saline with Tween-80
[13] = dose: 100.0 mg/kg/injection, schedule: Q01DX009 (ip), vehicle: saline with Tween-80
[14] = dose: 200.0 mg/kg/injection, schedule: Q01DX009 (ip), vehicle: saline with Tween-80
[15] = dose: 6.25 mg/kg/injection, schedule: Q01DX005 (ip), vehicle: saline with Tween-80
[16] = dose: 12.5 mg/kg/injection, schedule: Q01DX005 (ip), vehicle: saline with Tween-80

Measured: T/C

COc1ccc(C2=CC(c3ccc(OC)cc3)(c3ccc(C(F)(F)F)cc3)C=C(c3ccc(OC)cc3)S2)cc1
inactive: [1] 97 % of control | [2] 93 % of control | dose: 200.0 mg/kg/injection, schedule: Q01DX009 (ip), vehicle: Klucel (hydroxypropylcellulose) (HPC) 90 % of control

O=c1[nH]c(=O)c2c(Cl)cccc2[nH]1
inactive: [3] 93 % of control | [4] 100 % of control | [5] 91 % of control

NC(=NCc1ccncc1)N/N=C\c1ccnc2ccccc12
inactive: [6] 107 % of control | [7] 106 % of control

NC(=O)c1nc2c(Nc3cccc(Cl)c3)nc(N)nc2nc1N
inactive: dose: 100.0 mg/kg/injection, schedule: Q01DX001 (ip), vehicle: saline 100 % of control | dose: 200.0 mg/kg/injection, schedule: Q01DX001 (ip), vehicle: saline 104 % of control | dose: 400.0 mg/kg/injection, schedule: Q01DX001 (ip), vehicle: saline 104 % of control

COc1c(Cl)cccc1N=Cc1ccc(C=Nc2cccc(Cl)c2OC)cc1
inactive: [8] 97 % of control | [9] 90 % of control | [10] 89 % of control

O=[N+]([O-])c1cccc2nsnc12
inactive: dose: 6.25 mg/kg/injection, schedule: Q01DX009 (ip), vehicle: saline with Tween-80 100 % of control | dose: 12.5 mg/kg/injection, schedule: Q01DX009 (ip), vehicle: saline with Tween-80 116 % of control | [11] 94 % of control | [12] 107 % of control

O=C(NCCO)Nc1ccc2c(c1)OCCOCCOCCOCCO2
inactive: dose: 30.0 mg/kg/injection, schedule: Q01DX005 (ip), vehicle: saline 98 % of control | [6] 101 % of control | [7] 99 % of control | dose: 240.0 mg/kg/injection, schedule: Q01DX005 (ip), vehicle: saline 99 % of control

COc1ccccc1N1C(=S)N(c2cccc(Cl)c2Cl)C(=O)C(N=Nc2ccc(Br)cc2)C1O (stereo unspecified)
inactive: dose: 100.0 mg/kg/injection, schedule: Q01DX001 (ip), vehicle: Klucel (hydroxypropylcellulose) (HPC) 100 % of control | dose: 200.0 mg/kg/injection, schedule: Q01DX001 (ip), vehicle: Klucel (hydroxypropylcellulose) (HPC) 99 % of control | dose: 400.0 mg/kg/injection, schedule: Q01DX001 (ip), vehicle: Klucel (hydroxypropylcellulose) (HPC) 96 % of control

CC(=O)OC1CC(n2cc(C)c(=O)[nH]c2=O)OC1COP(=O)(N1CC1)N1CC1 (stereo unspecified)
inactive: dose: 25.0 mg/kg/injection, schedule: Q04DX003 (ip), vehicle: saline with Tween-80 104 % of control | dose: 50.0 mg/kg/injection, schedule: Q04DX003 (ip), vehicle: saline with Tween-80 112 % of control | dose: 100.0 mg/kg/injection, schedule: Q04DX003 (ip), vehicle: saline with Tween-80 124 % of control

CCCc1cc(=O)[nH]c(Sc2c([N+](=O)[O-])ncn2C)n1
inactive: [12] 103 % of control | [13] 95 % of control | [14] 91 % of control

Cc1cc(C)nc(NS(=O)(=O)c2ccc(NC(=O)C(Cl)(Cl)Cl)cc2)n1
inactive: [15] 104 % of control | [16] 101 % of control | dose: 25.0 mg/kg/injection, schedule: Q01DX005 (ip), vehicle: saline with Tween-80 94 % of control

C/C=C1/CN2CCC34c5ccccc5N(C)C23C(OC(C)=O)CC1C4(CO)C(=O)OC (stereo unspecified)
inactive: dose: 2.25 mg/kg/injection, schedule: Q01DX005 (ip), vehicle: saline + Tween-80 + alcohol 120 % of control | dose: 4.5 mg/kg/injection, schedule: Q01DX005 (ip), vehicle: saline + Tween-80 + alcohol 103 % of control | dose: 9.0 mg/kg/injection, schedule: Q01DX005 (ip), vehicle: saline + Tween-80 + alcohol 106 % of control | dose: 18.0 mg/kg/injection, schedule: Q01DX005 (ip), vehicle: saline + Tween-80 + alcohol 104 % of control

O=C(CN1CCCCC1)Nc1ccc2c(c1)C(=O)c1ccc(NC(=O)CN3CCCCC3)cc1C2=O
inactive: dose: 50.0 mg/kg/injection, schedule: Q01DX005 (ip), vehicle: Klucel (hydroxypropylcellulose) (HPC) 90 % of control and 97 % of control | dose: 50.0 mg/kg/injection, schedule: Q01DX005 (ip), vehicle: acid diluted with saline 100 % of control | dose: 100.0 mg/kg/injection, schedule: Q01DX005 (ip), vehicle: Klucel (hydroxypropylcellulose) (HPC) 90 % of control and 94 % of control | dose: 100.0 mg/kg/injection, schedule: Q01DX005 (ip), vehicle: acid diluted with saline 106 % of control | dose: 200.0 mg/kg/injection, schedule: Q01DX005 (ip), vehicle: Klucel (hydroxypropylcellulose) (HPC) 90 % of control and 95 % of control | dose: 200.0 mg/kg/injection, schedule: Q01DX005 (ip), vehicle: acid diluted with saline 108 % of control

CCCCC(O)(c1ccc2nc(NC(=O)OC)[nH]c2c1)c1cccs1 (stereo unspecified)
inactive: dose: 25.0 mg/kg/injection, schedule: Q01DX005 (ip), vehicle: other 110 % of control | dose: 50.0 mg/kg/injection, schedule: Q01DX005 (ip), vehicle: other 107 % of control | dose: 100.0 mg/kg/injection, schedule: Q01DX005 (ip), vehicle: other 110 % of control | dose: 200.0 mg/kg/injection, schedule: Q01DX005 (ip), vehicle: other 104 % of control

CNCc1c(O)ccc2c(-c3ccccc3)cc(=O)oc12
inactive: dose: 100.0 mg/kg/injection, schedule: Q04DX002 (ip), vehicle: saline with Tween-80 100 % of control | dose: 200.0 mg/kg/injection, schedule: Q04DX002 (ip), vehicle: saline with Tween-80 101 % of control

CCO/C(C)=N\O
inactive: dose: 25.0 mg/kg/injection, schedule: Q04DX003 (ip), vehicle: Klucel (hydroxypropylcellulose) (HPC) 98 % of control | [8] 103 % of control | dose: 50.0 mg/kg/injection, schedule: Q04DX003 (ip), vehicle: Klucel (hydroxypropylcellulose) (HPC) 98 % of control | [9] 97 % of control | dose: 100.0 mg/kg/injection, schedule: Q04DX003 (ip), vehicle: Klucel (hydroxypropylcellulose) (HPC) 99 % of control | [10] 101 % of control | dose: 200.0 mg/kg/injection, schedule: Q04DX003 (ip), vehicle: Klucel (hydroxypropylcellulose) (HPC) 99 % of control

O/N=C\c1cc2ccccc2c[n+]1Cc1ccc2ccc3cccc4ccc1c2c34
inactive: [15] 108 % of control | [16] 108 % of control

COC(=O)c1nc(N)nc(C(=O)OC)c1C(=O)c1ccc(OC)cc1
inactive: dose: 60.0 mg/kg/injection, schedule: Q01DX005 (ip), vehicle: Klucel (hydroxypropylcellulose) (HPC) 101 % of control | dose: 120.0 mg/kg/injection, schedule: Q01DX005 (ip), vehicle: Klucel (hydroxypropylcellulose) (HPC) 101 % of control

C[Si](C)(C)C#CC(C(O)c1ccccc1)N1CCCC1 (stereo unspecified)
inactive: dose: 100.0 mg/kg/injection, schedule: Q04DX003 (ip), vehicle: saline 94 % of control | dose: 200.0 mg/kg/injection, schedule: Q04DX003 (ip), vehicle: saline 92 % of control | dose: 400.0 mg/kg/injection, schedule: Q04DX003 (ip), vehicle: saline 101 % of control

COc1cc(N=Nc2ccc([N+](=O)[O-])cc2)c([OH+]C)cc1[N+]#N.COc1cc(N=Nc2ccc([N+](=O)[O-])cc2)c([OH+]C)cc1[N+]#N.[Cl][Zn][Cl]
inactive: [8] 110 % of control and 112 % of control and 117 % of control | [9] 111 % of control and 117 % of control and 119 % of control | [10] 116 % of control and 119 % of control | dose: 400.0 mg/kg/injection, schedule: Q01DX009 (ip), vehicle: saline 107 % of control

CC(=O)C1CCC(=O)N1C(C)=O (stereo unspecified)
inactive: [8] 100 % of control | [9] 106 % of control | [10] 114 % of control

O=c1c(F)cn(-c2ccco2)c(=O)n1-c1ccco1
inactive: dose: 37.5 mg/kg/injection, schedule: Q04DX003 (ip), vehicle: saline + alcohol 103 % of control | dose: 75.0 mg/kg/injection, schedule: Q04DX003 (ip), vehicle: saline + alcohol 100 % of control | dose: 150.0 mg/kg/injection, schedule: Q04DX003 (ip), vehicle: saline + alcohol 96 % of control

COc1cc(O)c2c(O)c3c(=O)cc(C)oc3cc2c1
inactive: [11] 102 % of control | [12] 109 % of control | [13] 112 % of control

C1CSC(CCC2SCCCS2)SC1
inactive: [12] 92 % of control | [13] 90 % of control | [14] 87 % of control

O=C1CCC2OC3CCC(=O)N3CN12 (stereo unspecified)
inactive: [3] 97 % of control | [4] 98 % of control | [5] 98 % of control

CCCCCCCCCCCCCCCC(=O)N1CCN(C)CC1
inactive: [11] 115 % of control

Cc1ccc(I)c(C(O)(C(F)(F)F)C(F)(F)F)c1
inactive: [1] 97 % of control | [2] 91 % of control

Source: PubChem BioAssay AID330 (DTP/NCI, 2004)
